Assay results as given in ChEMBL document CHEMBL3137667, “[Drug-induced liver injury; fourteenth updated edition of the bibliographic database of liver injuries and related drugs]” (Gastroenterol Clin Biol, 2004).

Key:
[1] = human
[2] = human, serum
[3] = Times to onset, minimal and maximal, observed in the indexed observations. [column 'DELAI' in source]; conditions: human
[4] = human, serum, 4383 h
[5] = Highest frequency of moderate liver toxicity observed during clinical trials, expressed as a percentage. [column '% BIOL' in source]; conditions: human
[6] = human; remark: listed apart in the source
[7] = human; remark: listed apart in the source
[8] = human, serum; remark: listed apart in the source
[9] = human; remark: listed apart in the source
[10] = human; remark: listed apart in the source
[11] = human; remark: listed apart in the source
[12] = human; remark: listed apart in the source
[13] = human; remark: listed apart in the source
[14] = human; remark: listed apart in the source
[15] = Highest frequency of acute liver toxicity observed during clinical trials, expressed as a percentage. [column '% AIGUE' in source]; conditions: human
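Wherever Hepatotoxicity (association with vascular disease) is given: count of indexed literature references reporting vascular liver injury in humans, e.g. peliosis hepatitis, hepatic veno-occlusive disease or Budd-Chiari syndrome.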
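Wherever Hepatotoxicity (benign tumour) is given: value is a count of indexed literature references citing a benign tumour confirmed by histopathology.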
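Wherever Hepatotoxicity (choleostasis) is given: human cholestatic liver injury, shown by histopathology or by peak ALT or AST elevation over alkaline phosphatase ratio below 2, value counts indexed literature reports.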
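Wherever Hepatotoxicity (chronic liver disease) is given: chronic liver injury confirmed by histopathology or persistently raised serum aminotransferase activity beyond 6 months, value given as the count of indexed literature references.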
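Wherever Hepatotoxicity (cirrhosis) is given: value is a count of indexed literature references reporting cirrhosis confirmed by histopathology.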
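Wherever Hepatotoxicity (cytolytic) is given: human cytolytic liver injury, shown by histopathology or by a ratio above 5 of peak ALT or AST elevation to alkaline phosphatase elevation, value counts indexed references.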
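Wherever Hepatotoxicity (granulomatous hepatitis) is given: value is a count of indexed literature references reporting granulomatous liver disease confirmed by histopathology.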
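Wherever Hepatotoxicity (malignant tumour) is given: malignant tumour confirmed by histopathology, value gives the count of indexed literature references reporting it.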
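Wherever Hepatotoxicity (severe hepatitis) is given: human clinical data: severe hepatitis, meaning potentially life-threatening liver failure or clinically observed cases, the value counts how many indexed literature references report it.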
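Wherever Hepatotoxicity (steatosis) is given: steatosis confirmed by histopathology, value is the count of indexed references.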

## COc1ccc2c(c1)N(C[C@H](C)CN(C)C)c1ccccc1S2 [LEVOMEPROMAZINE]
[1]
  Hepatotoxicity (cytolytic): 1
[2]
  Hepatotoxicity (acute): 4
[3]
  Hepatotoxicity (time to onset): 1.2 months - 2 months
[4]
  Hepatotoxicity (chronic liver disease): 0
[5]
  Hepatotoxicity (moderate): 4.5%
[6]
  Hepatotoxicity (severe hepatitis): 0
[7]
  Hepatotoxicity (association with vascular disease): 0
[8]
  Hepatotoxicity (moderate): 2
[9]
  Hepatotoxicity (steatosis): 0
[10]
  Hepatotoxicity (choleostasis): 3
[11]
  Hepatotoxicity (granulomatous hepatitis): 0
[12]
  Hepatotoxicity (benign tumour): 0
[13]
  Hepatotoxicity (cirrhosis): 0
[14]
  Hepatotoxicity (malignant tumour): 0
[15]
  Hepatotoxicity (acute): 2.7%

## O=C(O)Cc1cn(-c2ccccc2)nc1-c1ccc(Cl)cc1 [LONAZOLAC]
[1]
  Hepatotoxicity (cytolytic): 0
[2]
  Hepatotoxicity (acute): 1
[3]
  Hepatotoxicity (time to onset): 1 month
[4]
  Hepatotoxicity (chronic liver disease): 0
[5]
  Hepatotoxicity (moderate): 0%
[6]
  Hepatotoxicity (severe hepatitis): 0
[7]
  Hepatotoxicity (association with vascular disease): 0
[8]
  Hepatotoxicity (moderate): 0
[9]
  Hepatotoxicity (steatosis): 0
[10]
  Hepatotoxicity (choleostasis): 0
[11]
  Hepatotoxicity (granulomatous hepatitis): 0
[12]
  Hepatotoxicity (benign tumour): 0
[13]
  Hepatotoxicity (cirrhosis): 0
[14]
  Hepatotoxicity (malignant tumour): 0
[15]
  Hepatotoxicity (acute): 1.3%

## CN1CCN(C2=Nc3ccccc3Oc3ccc(Cl)cc32)CC1 [LOXAPINE]
[1]
  Hepatotoxicity (cytolytic): 0
[2]
  Hepatotoxicity (acute): 1
[3]
  Hepatotoxicity (time to onset): 1 week - 3 weeks
[4]
  Hepatotoxicity (chronic liver disease): 0
[5]
  Hepatotoxicity (moderate): 0%
[6]
  Hepatotoxicity (severe hepatitis): 0
[7]
  Hepatotoxicity (association with vascular disease): 0
[8]
  Hepatotoxicity (moderate): 2
[9]
  Hepatotoxicity (steatosis): 0
[10]
  Hepatotoxicity (choleostasis): 1
[11]
  Hepatotoxicity (granulomatous hepatitis): 0
[12]
  Hepatotoxicity (benign tumour): 0
[13]
  Hepatotoxicity (cirrhosis): 0
[14]
  Hepatotoxicity (malignant tumour): 0
[15]
  Hepatotoxicity (acute): 0%

## CN(C)[C@@H]1C(O)=C(C(=O)NCNCCCC[C@H](N)C(=O)O)C(=O)[C@@]2(O)C(O)=C3C(=O)c4c(O)cccc4[C@@](C)(O)[C@H]3C[C@@H]12 [LYMECYCLINE]
[1]
  Hepatotoxicity (cytolytic): 1
[2]
  Hepatotoxicity (acute): 1
[3]
  Hepatotoxicity (time to onset): 2.4 years
[4]
  Hepatotoxicity (chronic liver disease): 0
[5]
  Hepatotoxicity (moderate): 0%
[6]
  Hepatotoxicity (severe hepatitis): 0
[7]
  Hepatotoxicity (association with vascular disease): 0
[8]
  Hepatotoxicity (moderate): 0
[9]
  Hepatotoxicity (steatosis): 0
[10]
  Hepatotoxicity (choleostasis): 0
[11]
  Hepatotoxicity (granulomatous hepatitis): 0
[12]
  Hepatotoxicity (benign tumour): 0
[13]
  Hepatotoxicity (cirrhosis): 0
[14]
  Hepatotoxicity (malignant tumour): 0
[15]
  Hepatotoxicity (acute): 0%

## CN(C)CC(Oc1ccccc1)Oc1ccccc1 [MEDIFOXAMINE]
[1]
  Hepatotoxicity (cytolytic): 1
[2]
  Hepatotoxicity (acute): 1
[3]
  Hepatotoxicity (time to onset): 6 days
[4]
  Hepatotoxicity (chronic liver disease): 0
[5]
  Hepatotoxicity (moderate): 0%
[6]
  Hepatotoxicity (severe hepatitis): 2
[7]
  Hepatotoxicity (association with vascular disease): 0
[8]
  Hepatotoxicity (moderate): 0
[9]
  Hepatotoxicity (steatosis): 0
[10]
  Hepatotoxicity (choleostasis): 0
[11]
  Hepatotoxicity (granulomatous hepatitis): 0
[12]
  Hepatotoxicity (benign tumour): 0
[13]
  Hepatotoxicity (cirrhosis): 0
[14]
  Hepatotoxicity (malignant tumour): 0
[15]
  Hepatotoxicity (acute): 0%

## CCCC(C)(COC(N)=O)COC(N)=O [MEPROBAMATE]
[1]
  Hepatotoxicity (cytolytic): 0
[2]
  Hepatotoxicity (acute): 2
[3]
  Hepatotoxicity (time to onset): 2 weeks - 6 months
[4]
  Hepatotoxicity (chronic liver disease): 0
[5]
  Hepatotoxicity (moderate): 0%
[6]
  Hepatotoxicity (severe hepatitis): 0
[7]
  Hepatotoxicity (association with vascular disease): 0
[8]
  Hepatotoxicity (moderate): 0
[9]
  Hepatotoxicity (steatosis): 0
[10]
  Hepatotoxicity (choleostasis): 1
[11]
  Hepatotoxicity (granulomatous hepatitis): 0
[12]
  Hepatotoxicity (benign tumour): 0
[13]
  Hepatotoxicity (cirrhosis): 0
[14]
  Hepatotoxicity (malignant tumour): 0
[15]
  Hepatotoxicity (acute): 0%

## C[C@H]1CC(=O)C[C@@H]2CC[C@H]3[C@@H]4CC[C@H](O)[C@@]4(C)CC[C@@H]3[C@]21C [MESTEROLONE]
[1]
  Hepatotoxicity (cytolytic): 1
[2]
  Hepatotoxicity (acute): 1
[3]
  Hepatotoxicity (time to onset): 2 years
[4]
  Hepatotoxicity (chronic liver disease): 0
[5]
  Hepatotoxicity (moderate): 0%
[6]
  Hepatotoxicity (severe hepatitis): 0
[7]
  Hepatotoxicity (association with vascular disease): 0
[8]
  Hepatotoxicity (moderate): 0
[9]
  Hepatotoxicity (steatosis): 0
[10]
  Hepatotoxicity (choleostasis): 0
[11]
  Hepatotoxicity (granulomatous hepatitis): 0
[12]
  Hepatotoxicity (benign tumour): 0
[13]
  Hepatotoxicity (cirrhosis): 0
[14]
  Hepatotoxicity (malignant tumour): 0
[15]
  Hepatotoxicity (acute): 0%

## CNC1Cc2ccccc2N(C)c2ccccc21 (stereo not given) [METAPRAMINE]
[1]
  Hepatotoxicity (cytolytic): 1
[2]
  Hepatotoxicity (acute): 1
[3]
  Hepatotoxicity (time to onset): 3 weeks - 3 months
[4]
  Hepatotoxicity (chronic liver disease): 0
[5]
  Hepatotoxicity (moderate): 0%
[6]
  Hepatotoxicity (severe hepatitis): 0
[7]
  Hepatotoxicity (association with vascular disease): 0
[8]
  Hepatotoxicity (moderate): 0
[9]
  Hepatotoxicity (steatosis): 1
[10]
  Hepatotoxicity (choleostasis): 1
[11]
  Hepatotoxicity (granulomatous hepatitis): 0
[12]
  Hepatotoxicity (benign tumour): 0
[13]
  Hepatotoxicity (cirrhosis): 0
[14]
  Hepatotoxicity (malignant tumour): 0
[15]
  Hepatotoxicity (acute): 0%

## C=C1c2cccc(O)c2C(=O)C2=C(O)[C@]3(O)C(=O)C(C(N)=O)=C(O)[C@@H](N(C)C)[C@@H]3[C@@H](O)[C@H]12 [METHACYCLINE]
[1]
  Hepatotoxicity (cytolytic): 1
[2]
  Hepatotoxicity (acute): 1
[3]
  Hepatotoxicity (time to onset): 7 months - 1 year
[4]
  Hepatotoxicity (chronic liver disease): 0
[5]
  Hepatotoxicity (moderate): 0%
[6]
  Hepatotoxicity (severe hepatitis): 0
[7]
  Hepatotoxicity (association with vascular disease): 0
[8]
  Hepatotoxicity (moderate): 0
[9]
  Hepatotoxicity (steatosis): 0
[10]
  Hepatotoxicity (choleostasis): 0
[11]
  Hepatotoxicity (granulomatous hepatitis): 0
[12]
  Hepatotoxicity (benign tumour): 0
[13]
  Hepatotoxicity (cirrhosis): 0
[14]
  Hepatotoxicity (malignant tumour): 0
[15]
  Hepatotoxicity (acute): 0%

## COc1cccc(OC)c1C(=O)N[C@@H]1C(=O)N2[C@@H]1SC(C)(C)[C@@H]2C(=O)O [METHICILLIN]
[1]
  Hepatotoxicity (cytolytic): 0
[2]
  Hepatotoxicity (acute): 0
[3]
  Hepatotoxicity (time to onset): 3 days - 3 weeks
[4]
  Hepatotoxicity (chronic liver disease): 0
[5]
  Hepatotoxicity (moderate): 18.7%
[6]
  Hepatotoxicity (severe hepatitis): 0
[7]
  Hepatotoxicity (association with vascular disease): 0
[8]
  Hepatotoxicity (moderate): 1
[9]
  Hepatotoxicity (steatosis): 0
[10]
  Hepatotoxicity (choleostasis): 0
[11]
  Hepatotoxicity (granulomatous hepatitis): 0
[12]
  Hepatotoxicity (benign tumour): 0
[13]
  Hepatotoxicity (cirrhosis): 0
[14]
  Hepatotoxicity (malignant tumour): 0
[15]
  Hepatotoxicity (acute): 0%

## CC[C@@H](CO)NC(=O)[C@@H]1C=C2c3cccc4[nH]cc(c34)C[C@H]2N(C)C1 [METHYLERGONOVINE]
[1]
  Hepatotoxicity (cytolytic): 0
[2]
  Hepatotoxicity (acute): 0
[3]
  Hepatotoxicity (time to onset): 0.12 days
[4]
  Hepatotoxicity (chronic liver disease): 0
[5]
  Hepatotoxicity (moderate): 0%
[6]
  Hepatotoxicity (severe hepatitis): 0
[7]
  Hepatotoxicity (association with vascular disease): 0
[8]
  Hepatotoxicity (moderate): 1
[9]
  Hepatotoxicity (steatosis): 0
[10]
  Hepatotoxicity (choleostasis): 0
[11]
  Hepatotoxicity (granulomatous hepatitis): 0
[12]
  Hepatotoxicity (benign tumour): 0
[13]
  Hepatotoxicity (cirrhosis): 0
[14]
  Hepatotoxicity (malignant tumour): 0
[15]
  Hepatotoxicity (acute): 0%

## CC[C@@H](CO)NC(=O)[C@@H]1C=C2c3cccc4c3c(cn4C)C[C@H]2N(C)C1 [METHYSERGIDE]
[1]
  Hepatotoxicity (cytolytic): 0
[2]
  Hepatotoxicity (acute): 0
[3]
  Hepatotoxicity (time to onset): 5 years
[4]
  Hepatotoxicity (chronic liver disease): 0
[5]
  Hepatotoxicity (moderate): 0%
[6]
  Hepatotoxicity (severe hepatitis): 0
[7]
  Hepatotoxicity (association with vascular disease): 0
[8]
  Hepatotoxicity (moderate): 1
[9]
  Hepatotoxicity (steatosis): 0
[10]
  Hepatotoxicity (choleostasis): 0
[11]
  Hepatotoxicity (granulomatous hepatitis): 0
[12]
  Hepatotoxicity (benign tumour): 0
[13]
  Hepatotoxicity (cirrhosis): 0
[14]
  Hepatotoxicity (malignant tumour): 0
[15]
  Hepatotoxicity (acute): 0%

## Cc1ccc2c(c1)C(N1CCN(C)CC1)=Nc1ccccc1S2 [METIAPINE]
[1]
  Hepatotoxicity (cytolytic): 1
[2]
  Hepatotoxicity (acute): 1
[3]
  Hepatotoxicity (time to onset): 2 weeks - 2 months
[4]
  Hepatotoxicity (chronic liver disease): 0
[5]
  Hepatotoxicity (moderate): 0%
[6]
  Hepatotoxicity (severe hepatitis): 0
[7]
  Hepatotoxicity (association with vascular disease): 0
[8]
  Hepatotoxicity (moderate): 2
[9]
  Hepatotoxicity (steatosis): 0
[10]
  Hepatotoxicity (choleostasis): 0
[11]
  Hepatotoxicity (granulomatous hepatitis): 0
[12]
  Hepatotoxicity (benign tumour): 0
[13]
  Hepatotoxicity (cirrhosis): 0
[14]
  Hepatotoxicity (malignant tumour): 0
[15]
  Hepatotoxicity (acute): 0%

## CCN(CC)CCNC(=O)c1cc(Cl)c(N)cc1OC [METOCLOPRAMIDE]
[1]
  Hepatotoxicity (cytolytic): 1
[2]
  Hepatotoxicity (acute): 1
[3]
  Hepatotoxicity (time to onset): 2 days - 4 months
[4]
  Hepatotoxicity (chronic liver disease): 0
[5]
  Hepatotoxicity (moderate): 6%
[6]
  Hepatotoxicity (severe hepatitis): 0
[7]
  Hepatotoxicity (association with vascular disease): 1
[8]
  Hepatotoxicity (moderate): 2
[9]
  Hepatotoxicity (steatosis): 0
[10]
  Hepatotoxicity (choleostasis): 0
[11]
  Hepatotoxicity (granulomatous hepatitis): 0
[12]
  Hepatotoxicity (benign tumour): 0
[13]
  Hepatotoxicity (cirrhosis): 0
[14]
  Hepatotoxicity (malignant tumour): 0
[15]
  Hepatotoxicity (acute): 0%
